{"source": "patent US12544348B2", "about": "“Methods for treating APOE4/4-associated disorders” (The Regents of the University of California, priority 2018, dated 2026)", "tested_on": "apoE4/4-iPSC-derived human neurons", "assay": "RNA-Seq analysis of apoE4/4-iPSC-derived human neurons", "type": "cell-based", "conditions": "10 μM, 6 hours", "excerpt": "Neuronal Differentiation of Human apoE4/4-iPSCs. Human iPS lines were generated from skin fibroblasts of a subject with apoE4/4 genotype and were maintained under feeder-free conditions in mTeSR1 medium (STEMCELL Technologies). Human apoE4/4-iPSCs were routinely passaged at 1:2-1:4 by brief treatment with Accutase (Millipore) and scraping. The human iPSC protocol was approved by the Committee on Human Research at the University of California. The apoE4/4-iPSCs were differentiated into neurons as reported with modifications. iPSCs were treated with collagenase IV (Stem Cell Technologies) and grown in suspension as embryoid bodies in hES medium without bFGF. The medium was replaced every day for 5 days. On day 5, embryoid bodies were grown in Neural Induction Medium containing Dulbecco's modified Eagle's medium/F12 and Neurobasal Medium (1:1, Thermo Fisher), 1% N2 Supplement (Life Technologies), 1% B27 Supplement (Life Technologies), nonessential amino acids, and 0.5% penicillin/streptomycin (Life Technologies) supplemented with inhibitors of the TGF-β receptor (SB431542, Stemgent; 5 μM) and the bone morphogenetic protein receptor (LDN-193189, Stemgent; 0.25 μM). On day 7, spheres were transferred to wells coated with Matrigel (BD Biosciences) and grown in Neural Progenitor Medium, which consisted of Neural Induction Medium without SB and LDN, but containing 10 ng/ml bFGF (PeproTech), 10 ng/ml epidermal growth factor (EGF) (PeproTech), and 2 μg/ml heparin (Sigma). Attached neuroepithelial cells were fed every other day for 7 days. Neural rosette structures appeared by around day 15, were lifted off the plate, and grown in suspension in Neural Progenitor Medium to form neurospheres. For neuronal differentiation, neurospheres were dissociated with Accutase and plated on culture plates coated with 100 μg/ml poly-1-ornithine (Sigma) and 10 μg/ml laminin (Sigma). Neuronal cultures were maintained in Neural Differentiation Medium consisting of Neural Progenitor Medium, brain-derived neurotrophic factor (10 ng/ml; PeproTech), and glial cell-derived growth factor (10 ng/ml; PeproTech) without bFGF, EGF, or heparin. Neurons were observed after several days and were further differentiated for 30 days or longer. Most of the experiments were performed on the neuronal culture differentiated beyond 8 weeks. This culture condition generated neuronal cells with 75±4% vGLUT^+ total glutamatergic excitatory neurons, 15±3% GABA^+ GABAergic inhibitory neurons, and 5±2% TH^+ dopaminergic neurons. RNA-Seq Analysis of Human ApoE4/4-iPS-derived Neurons. Total RNA was extracted and purified from apoE4/4-iPSC-derived human neurons with the Qiagen RNeasy Micro kit, which included a DNase treatment. cDNA was generated from full-length RNA (50 ng per sample) with the NuGEN RNA-Seq V2 kit, which uses the single primer isothermal amplification method to deplete ribosomal RNA, and sheared by Covaris to yield fragments of uniform size. The NuGen Ultralow system V2 was used for adding adapters and for barcoding and amplification. The resulting RNA libraries were purified with Agencourt XP magnetic beads, and quantified by qPCR after quality control with an Agilent Bioanalyzer. The libraries were pooled and sequenced with a HiSeq 4000 instrument (Illumina) for single-end (SE50) sequencing. Sequence data were aligned with the STAR short read aligner and counts per feature were obtained with the featureCounts function from the Subread package. […]", "key": {"[1]": {"conditions": "vs vehicle, P<0.05 by Monte Carlo Simulation"}}}
{"molecule": "CCCCNc1cc(C(=O)O)cc(S(N)(=O)=O)c1Oc1ccccc1", "note": "[bumetanide, 3-(butylamino)-4-phenoxy-5-sulfamoylbenzoic acid]", "values": [{"measurement": "number of pathways also shared with the apoE4/4 AD signature from humans", "value": 4}, {"measurement": "number of pathways overlapping with mouse hippocampal neuronal cells exhibiting the predicted drug effect", "value": 14}, {"measurement": "number of significantly perturbed pathways", "value": 27}, {"measurement": "shift in FC rank of genes downregulated in apoE4/4 AD", "setting": "[1]", "value": "shifted upward towards lower rank numbers"}, {"measurement": "shift in FC rank of genes upregulated in apoE4/4 AD", "setting": "[1]", "value": "shifted downward towards higher rank numbers"}]}
